The METLIN SMRT retention time set (Domingo-Almenara et al. 2019)

Assay: gradient 5% acetonitrile 3 min, to 50% in 2 min, to 85% in 15 min, held 3 min, 100 µL/min
Conditions: column: Zorbax Extend-C18 2.1 x 50 mm; eluents: water / acetonitrile, 0.1% formic acid
In short: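 Values are retention times taken from adduct peaks that software picked and an analyst inspected. The pure standards were run as mixtures of ~100 molecules on HPLC linked to a quadrupole time-of-flight mass spectrometer, in positive and negative ionization mode. A Zorbax Extend-C18 column (2.1 × 50 mm, 1.8 μm) was used at 100 μL/min with water and acetonitrile, each including 0.1% formic acid.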

| SMILES | RP-LC retention time |
| --- | --- |
| CCCn1c(=O)c(C)nc2cc(-c3noc(-c4ccc(F)c(F)c4)n3)ccc21 | 1230 s |
| CCN(CC)S(=O)(=O)c1ccc2c(c1)N(CC(=O)NC1CCCC1)C(=O)C1CCCCN21 (centres undefined) | 927 s |
| Cc1cc(NC(=O)C(=O)NCCN2CCN(c3ccccc3F)CC2)no1 | 580 s |
| COc1ccc(NC(=O)N2c3ccccc3CC2c2nc(C3CC3)no2)cc1OC (centres undefined) | 933 s |
| CCOc1ccc(CNC(=O)c2ccc3c(c2)NC(=O)C2CCCCN32)cc1OC (centres undefined) | 747 s |
| C=CCN1C(=O)C(C)(C)COc2cc(NC(=O)c3cccc(OC)c3OC)ccc21 | 943 s |
| Cc1cccc(CN2CC(N(C3CCOCC3)S(C)(=O)=O)C2)c1 | 621 s |
| CCC(C(=O)N1CCN(c2cc(-c3ccccc3)ncn2)CC1)c1ccccc1 (centres undefined) | 649 s |
| COc1ccc2c(c1)CCc1sc(NC(=O)c3ccc(F)cc3)nc1-2 | 1140 s |
| Cc1ccc(CNC(=O)C2(C)CCCN(S(=O)(=O)c3ccccc3)C2)cc1 (centres undefined) | 960 s |
| CC(C)c1ccc(-c2noc(N3CCC(C(=O)N4CCCCCC4)CC3)n2)cc1 | 1180 s |
| CN1CCc2c([nH]c3ccccc23)C12CCN(S(=O)(=O)c1cccnc1)CC2 | 585 s |
| Cn1nc(-c2ccccc2)c2ccccc2c1=O | 799 s |
| COc1ccccc1-c1noc(C2CCCN2C(=O)c2cccc(F)c2)n1 (centres undefined) | 856 s |
| Cc1ccc(C)c(NC(=O)C2(C)Oc3cccnc3N(C)C2=O)c1 (centres undefined) | 836 s |
| Cc1c(N2C(=O)C3C4C=CC(C4)C3C2=O)c(=O)n(-c2ccccc2)n1C (centres undefined) | 615 s |
| COc1cc(NC(=O)C2Nc3cc(F)ccc3S(=O)(=O)N2)cc(OC)c1OC (centres undefined) | 718 s |
| Cc1ccc(NC(=O)C2CCN(S(=O)(=O)c3cc(C(=O)N4CCCC4)n(C)c3)CC2)cc1Cl | 875 s |
| CCc1ccc(S(=O)(=O)c2cnc3ccc(OC)cc3c2N2CCN(C)CC2)cc1 | 653 s |
| CC1(C)SC2C(NC(=O)COc3ccccc3)C(=O)N2C1C(=O)O (centres undefined) | 821 s |
| CN1CCN(CCCNC(=O)c2ccc(NC(=O)C3=CSCCO3)cc2)CC1 | 876 s |
| COC(=O)C1=CN(CC(=O)N2CCN(c3ccccc3)CC2)S(=O)(=O)N=C1C | 871 s |
| CN1Cc2c(N)cccc2C(c2ccccc2)C1 (centres undefined) | 678 s |

| SMILES | RP-LC retention time |
| --- | --- |
| Cc1cc(N2CCC(NC(=O)Nc3ccc(F)cc3)C2=O)ccc1F (centres undefined) | 849 s |
| Cc1onc(-c2ccccc2Cl)c1C(=O)Nc1nnc(-c2cccs2)o1 | 767 s |
| Cc1ccc2[nH]cc(CCNC(=O)Nc3ccc(Cl)c(Cl)c3)c2c1 | 1050 s |
| COc1ccc(-c2nc(Nc3c(C)n[nH]c3C)sc2C)cc1 | 630 s |
| Cc1ccc(NC(=O)Cn2cnc3nc(N4CCCC(C(=O)NC(C)C)C4)sc3c2=O)c(F)c1 (centres undefined) | 701 s |
| Cc1cc(F)ccc1NC(=O)C1CCN(S(=O)(=O)c2ccc3c(c2)sc(=O)n3C)CC1 | 844 s |
| O=C(NCC1CN(c2ccc(F)cc2)C(=O)O1)c1cc(Cl)ccc1Cl (centres undefined) | 797 s |
| CCn1ccc2cc(S(=O)(=O)N3CCC(C(=O)NCc4cccnc4)CC3)ccc21 | 653 s |
| O=c1ccn(-c2cccc(F)c2)nc1-c1nc(-c2ccc(F)c(Br)c2)no1 | 1040 s |
| COc1ccc(N(C(=O)Nc2ccccc2OC)C2=NCCC2)cc1Cl | 1060 s |
| Cc1ccc(S(=O)(=O)N2CCC(CCNC(=O)NCCC(C)C)CC2)cc1 | 715 s |
| Cc1ccc(-n2nc(C)c3c(C)c(CCC(=O)NCCc4c[nH]c5ccccc45)c(C)nc32)cc1C | 1150 s |
| CC(C)CN1CCN(C(=O)c2cn(-c3ccc(-c4nc(C(C)(C)C)no4)cn3)cn2)CC1 | 699 s |
| CCOc1cccc(-c2noc(Cn3nc(-c4ccc(F)cc4)ccc3=O)n2)c1 | 1060 s |
| CN(CC1CCOC1)C(=O)Nc1ccccc1Br (centres undefined) | 736 s |
| CS(=O)(=O)N1CCC(C(=O)Nc2cccc(Cl)c2)Oc2ccccc21 (centres undefined) | 954 s |
| Cc1cc(C)n(CC(=O)NCCc2c[nH]c3ccccc23)c(=O)n1 | 570 s |
| Cc1ccc(CNC(=O)c2cc3n(n2)CC(C)(C(=O)NCCC(C)C)N(C)C3=O)cc1 (centres undefined) | 802 s |
| O=C(c1c[nH]c2ccccc12)N1CCC2(CC1)NC(=O)N(Cc1ccccc1)C2=O | 750 s |
| Cc1nc2cc(N3CCCC(C(=O)Nc4ccc5c(c4)OCO5)C3)cnc2nc1C (centres undefined) | 695 s |
| Cc1noc(-c2cc(=O)n(CC(=O)Nc3cccc(Cl)c3C)c3ccccc23)n1 | 923 s |
| Cc1ccc(-c2cn3c(CC(=O)Nc4ccc(F)cc4C)csc3n2)cc1C | 862 s |
| O=C(Nc1ccc(F)c(F)c1)c1cc(C2CC2)on1 | 860 s |

| SMILES | RP-LC retention time |
| --- | --- |
| CCOc1ccc(-c2nc3ncccn3c2NCc2ccccc2)cc1OC | 697 s |
| CC(=O)N1c2ccc(S(=O)(=O)N3CCCCC3)cc2CC1C(=O)N1CCC(C)CC1 (centres undefined) | 881 s |
| COc1ccccc1-c1noc(Cn2c(=O)n(-c3ccccc3F)c(=O)c3sccc32)n1 | 880 s |
| O=C(Cn1ccc2c(SCc3ccc(F)cc3)nccc21)NCc1ccc2c(c1)OCO2 | 744 s |
| CC(C)n1c(N2CCN(C(=O)c3ccc(Br)o3)CC2)cc(=O)n(C(C)C)c1=O | 870 s |
| Cc1cc(NC2CCCCC2)nc(-n2nc(C)cc2C)n1 | 850 s |
| c1ccc(-c2nc3ccccn3c2Nc2ccc3c(c2)OCCO3)cc1 | 665 s |
| CCCCN1CCC(N(C(=O)NCCc2ccccc2)C2CCOCC2)CC1 | 671 s |
| Cc1ccc(N2C(=O)CN(CCc3cccs3)[C@H]3CS(=O)(=O)C[C@H]32)cc1C | 865 s |
| CC(C)(C)NC(=O)Cc1cccn1-c1ccc(F)cc1 | 925 s |
| O=C(CCc1c(-c2ccccc2)nc2ccccn12)Nc1cccc(Cl)c1 | 692 s |
| Cc1ccc(Nc2c(-c3nc(C)no3)cnc3nc(C)ccc23)cc1 | 750 s |
| CC(C)Oc1ccc(C(=O)O)cc1 | 823 s |
| CCc1noc(NC(C)=O)c1-c1ccc(C)c(S(=O)(=O)Nc2cccc(C#N)c2)c1 | 776 s |
| CNC(=O)c1ccsc1NC(=O)c1cccc(C(F)(F)F)c1 | 1160 s |
| COCCN1CCC(CNC(=O)C(=O)Nc2cccc(SC)c2)CC1 | 563 s |
| COc1ccc(OC)c2c1cc1n2CC(C)(C(=O)NC2CCCCCCC2)N(CCN(C)C)C1=O (centres undefined) | 760 s |
| O=C(Cn1nc2c(N3CCOCC3)nccn2c1=O)Nc1ccc(Br)cc1F | 779 s |
| CCOC(=O)c1c(CN2CCOCC2)n(C)c2cc(Br)c(OC(C)=O)cc12 | 704 s |
| O=C(Cc1c(F)cccc1Cl)NC1CCN(c2cc(-c3cccs3)[nH]n2)C1 (centres undefined) | 747 s |
| CC1CCN(C(=O)c2nnc(-c3ccc(S(=O)(=O)N4CCC(C)CC4)cc3)o2)CC1 | 1120 s |
| Cc1cccc(C(=O)N2CCC3(CC2)NC(=O)c2cc(F)ccc2N3C)c1 | 779 s |
| CNC(=O)[C@@H]1CN(S(=O)(=O)c2cnc[nH]2)C[C@H]1c1n[nH]c(C)n1 | 530 s |

| SMILES | RP-LC retention time |
| --- | --- |
| CCc1ccc(NC(=O)C2CCCN(c3ccc(=O)n(-c4ccc(C)c(Cl)c4)n3)C2)cc1 (centres undefined) | 586 s |
| COc1cc(OC)c2c(C)cc(=O)oc2c1 | 809 s |
| COc1cc(-c2noc(C3CC(=O)N(c4ccc(C)c(F)c4)C3)n2)cc(OC)c1OC (centres undefined) | 976 s |
| CCN1C(=O)C2(CCN(S(=O)(=O)c3ccc(Cl)c(C)c3)CC2)c2ccccc21 | 1100 s |
| COc1ccc(C2C(C(=O)Nc3ccc4c(c3)OCCO4)c3ccccc3C(=O)N2C)cc1 (centres undefined) | 832 s |
| CCOc1ccc(NC(=O)N2CCC(n3cnc4ccc(Cl)cc4c3=O)CC2)cc1 | 844 s |
| O=C(Cc1ccc(Cl)cc1)N1CCN(c2ncccc2-c2nnc(C3CC3)o2)CC1 | 872 s |
| COc1ccccc1Cc1noc(C2CN(C(=O)c3ccc(Cl)s3)C2)n1 | 892 s |
| CCc1cc(C(=O)NCc2ccc(C)cc2)nc2ccnn12 | 985 s |
| COC(=O)C1=CN(c2ccc(F)cc2)c2cc(F)ccc2S1(=O)=O | 789 s |
| CCCn1nnc(NCc2ccc(-c3ccc(Br)cc3Cl)o2)n1 | 1230 s |
| NC(=O)c1oc2ccccc2c1NC(=O)c1cc(=O)c2ccccc2o1 | 805 s |
| Cc1ccc(C(=O)Nc2nc(-c3ccccc3)cs2)o1 | 973 s |
| Cc1cc2nc(C(F)(F)F)c(=O)n(C(C)C(=O)NCCCOC(C)C)c2cc1C (centres undefined) | 1140 s |
| COc1ccc(NC(=O)c2ccc(-c3ccsc3)nc2)cc1 | 862 s |
| CC(C)Cn1cc(CCNC(=O)Nc2ccc(Cl)cc2)c2cccnc21 | 889 s |
| COC(=O)c1ccc(Cl)cc1NC(=O)N1CCN(C)c2ccccc21 | 1240 s |
| O=C(Nc1ccccc1F)C1CCN(S(=O)(=O)c2cc(C(=O)N3CCCCCC3)cs2)CC1 | 916 s |
| CCCN(C)C(=O)COc1ccc(NC(=O)C2CC2)cn1 | 666 s |
| CCN(CC)CCNC(=O)C1(O)c2cc(Br)ccc2NC(=O)N1c1cccc(OC)c1 (centres undefined) | 590 s |
